Legend:
Assay type in all cases: in vivo, mouse
Wnt signaling pathway = assay: quantitative PCR of Wnt genes, Wnt antagonists and Wnt target genes after NMDA injury
Protocol: Total RNA was extracted from retinas using TRIzol (Invitrogen, Grand Island, N.Y.) according to the manufacture's protocol. Reverse transcription (RT) was then performed at 42° C. for 2 hours in a volume of 20 μl containing 0.5 μg of oligo(dT), 1×RT buffer, 0.5 mM each deoxyribonucleotide triphosphate, 0.1 mM dithiothreitol, and 200 U of Superscript II reverse transcriptase (Invitrogen, Grand Island, N.Y.). Real-Time quantitative PCR (qPCR) was performed in triplicate with SsoFast™ EvaGreen supermix (Bio-Rad, Hercules, Calif.) using an iCycler real-time PCR detection system (Bio-Rad, Hercules, Calif.). The amplification protocol was 30 seconds at 94° C., 30 seconds at 56° C., and 30 seconds at 72° C., with a signal detection period of 7 seconds at 80° C. A melt curve analysis was performed at the end of the reaction to check the reaction specificity. Results were obtained after normalization to the expression level of the housekeeping gene, B-actin. All experiments were performed at least twice to ensure repeatable results.
To examine whether Wnt signaling is activated by NMDA-induced neurotoxic injury, quantitative PCR was performed to assay the RNA levels of Wnt genes at 3, 6, 12, 18, 24, 36, and 48 hours post-NMDA injection, relative to the PBS injected retina as a control. […] The upregulation of Wnt genes and a concomitant downregulation of WIF-1 and Dkk1 would predict activation of the canonical Wnt/β-catenin signaling pathway. Indeed, 24 hours post-NMDA injection, a 3.4-fold upregulation of CyclinD1 (Ccnd1, FIG. 2D), a target gene of the Wnt signaling pathway (Shtutman et al., Proc Natl Acad Sci USA, 1999, 96:5522-5527; Tetsu and McCormick, Nature, 1999, 398:422-426) and key regulator of the cell cycle progression from the G1 to S phase (Resnitzky et al., Mol Cell Biol. 1994, 14:1669-1679), was detected.

[1] = test system: retinal ganglion cells and amacrine cells; assay: NMDA-induced cell death, anti-HuC/D immunohistochemistry in the ganglion cell layer; conditions: 36 hours post-NMDA injection, 200 nmol NMDA intravitreal
Protocol: (§1) Adult mice at 4 weeks of age were anesthetized with an intraperitoneal injection of ketamine (50 mg/kg mouse body weight) and xylazine (5 mg/kg mouse body weight). Intravitreal injection was performed using a microsyringe equipped with a 33 gauge needle. The tip of the needle was passed through the sclera, at the equator and next to the dorsal limbus of the eye, into the vitreous cavity. Injection volume is 1 μl per eye for AAVs or other chemicals including NMDA (Acros Organics, 100 mM) and XAV939 (Sigma, 10 μM).
Retinas were fixed with 4% paraformaldehyde in PBS for 30 minutes at room temperature, followed by overnight incubation at 4° C. in PBS containing 30% sucrose. […]
To examine MG proliferation induced by neurotoxic injury in the adult mammalian retina, 200 nmol was injected NMDA into the vitreous chamber of the mouse retina at 4 weeks of age. […] NMDA-induced cell proliferation was quantified by scoring the number of EdU^+ cells/mm^2 in retinal flatmount preparations. […]
To examine the ability of inhibition of Wnt signaling to suppress NMDA-induced MG proliferation, NMDA was co-injected with XAV939, a selective Wnt signaling antagonist (Huang et al., Nature, 2009, 461:614-620), and the number of EdU^+ cells per mm^2 in retinal flatmount preparations was quantified 60 hours post-injection, when the maximum number of EdU^+ cells were detected (FIG. 2A). […]

Müller glial cells (MGs) = assay: NMDA-induced MG proliferation, EdU incorporation in retinal flatmount preparations
Protocol: as §1
EdU solution (1 ul) was intravitreally injected into the vitreous chamber at the concentration of 1 mg/ml. Analysis of EdU incorporation was performed using Click-iT EdU Kit (Invitrogen, Grand Island, N.Y.). In brief, retinal cryostat sections or flatmount preparations were washed in PBS first for 10 min and then washed twice in PBS containing 3% BSA, followed by permeabilization in PBS containing 0.5% Triton X-100 for 20 min. After washing twice in PBS containing 3% BSA, EdU detection components were resuspended according to manufacturer's instructions and applied directly to retinal samples. The solution for each EdU reaction has a total volume of 250 μl composed of 215 μl 1× Click-iT reaction buffer, 10 μl CuSO4, 0.6 μl Alexa Fluor azide, and 25 μl 1× Reaction buffer additive. After incubation in the reaction solution for 30 minutes at room temperature, samples were washed with PBS and mounted with Fluoromount-G for detection.
To examine MG proliferation induced by neurotoxic injury in the adult mammalian retina, 200 nmol was injected NMDA into the vitreous chamber of the mouse retina at 4 weeks of age. The same dosage of NMDA was previously used to introduce retinal injury leading to MG proliferation in adult rat and mouse retina (Karl et al., Proc Natl Acad Sci USA, 2008, 105:19508-19513; Ooto et al., Proc Natl Acad Sci USA, 2004, 101:13654-13659). Anti-HuC/D immunohistochemistry was used to assay the time course of NMDA-induced cell death in the ganglion cell layer (GCL). […] To assay cell proliferation, 1 μl of 1 mg/ml of EdU, a nucleoside analog of thymidine that is incorporated into DNA during active DNA synthesis, was injected into the vitreous chamber 5 hours before tissue collection at 24, 36, 48, 60, 72, and 96 hours post-NMDA injection. NMDA-induced cell proliferation was quantified by scoring the number of EdU^+ cells/mm^2 in retinal flatmount preparations. A small number (4.7±0.8) of EdU^−1 cells appeared 36 hours post-NMDA injection. The number of EdU^−1 cells continued to increase, reaching 223.3±8.3 and 264.5±8.4 at 48 and 60 hours, respectively, before it was reduced to 5.8±1.1 at 72 hours post-NMDA injection (FIG. 2A). The EdU^−1 cells were also immunoreactive for CyclinD3 and p27^kip1 (FIG. 2B), MG-specific nuclear antigens (Dyer and Cepko, Nat Neurosci. 2000, 3:873-880).
To examine the ability of inhibition of Wnt signaling to suppress NMDA-induced MG proliferation, NMDA was co-injected with XAV939, a selective Wnt signaling antagonist (Huang et al., Nature, 2009, 461:614-620), and the number of EdU^+ cells per mm^2 in retinal flatmount preparations was quantified 60 hours post-injection, when the maximum number of EdU^+ cells were detected (FIG. 2A). […] To assay whether XAV939 treatment affects NMDA-induced retinal damage, the number of HuC/D+ cells was quantified in the GCL at 60 hours post-injection.
Lin28 is a direct transcriptional target of Wnt/β-catenin signaling. […]

Compound | RNA levels for Wnt genes (Wnt2b, Wnt8a, Wnt8b, Wnt9a, Wnt10a), upregulation (Wnt signaling pathway; 6-24 hours post-NMDA injection, relative to PBS injected retina) | RNA levels for WIF-1 (Wnt signaling pathway; 12 hours post-NMDA injection) | RNA levels for Dkk1 (Wnt signaling pathway; 24 hours post-NMDA injection) | upregulation of CyclinD1 (Ccnd1) (Wnt signaling pathway; 24 hours post-NMDA injection) [fold] | RNA levels of Lef1 and Axin2 (Wnt signaling pathway; post-NMDA injection) | HuC/D+ cells remaining [1] [%] | number of EdU+ cells/mm^2 (Müller glial cells (MGs); 36 hours post-NMDA injection) [cells/mm^2] | number of EdU+ cells/mm^2 (Müller glial cells (MGs); 48 hours post-NMDA injection) [cells/mm^2] | number of EdU+ cells/mm^2 (Müller glial cells (MGs); 60 hours post-NMDA injection) [cells/mm^2] | number of EdU+ cells/mm^2 (Müller glial cells (MGs); 72 hours post-NMDA injection) [cells/mm^2] | number of EdU+ cells per mm^2 versus NMDA injection alone (Müller glial cells (MGs); XAV939 co-injected with NMDA, 60 hours post-injection)
CN[C@H](CC(=O)O)C(=O)O [NMDA] | at least 3 fold | 1.6±0.2 % of the control | 13.2±0.6 % of the control | 3.4 | significant upregulation | ~45 | 4.7±0.8 | 223.3±8.3 | 264.5±8.4 | 5.8±1.1 | –
Oc1nc(-c2ccc(C(F)(F)F)cc2)nc2c1CSCC2 [XAV939] | – | – | – | – | – | – | – | – | – | – | significantly reduced
